In a melting point compilation (Tetko et al.; mined from patent text by program, amines drawn as free bases though some values may be those of a salt):

| SMILES | melting point [°C] |
| --- | --- |
| CCOC(=O)/C(=C\Nc1cccc(OC)c1)c1ccc(OC)cc1 | 60 to 61 |
| COc1ccc(N2CCOCC2)c2sc(-c3nc4ccc(N(C)C)nc4[nH]3)nc12 | 120 to 130 |
| CNc1cc(Br)cc(S(=O)(=O)c2ccccc2)c1 | 143 to 145 |
| CCOC(=O)c1cc2c(Cl)ccc3c2n1CCCC=C3 | 89 to 90 |
| O=C(Nc1ccc(N2CCN(C(=O)Nc3ccc(OCCO)cc3Cl)CC2)cc1)Nc1ccccc1F | 213 to 217 |
| O=C(Nc1ccc2ccc(Cl)cc2n1)c1ccccc1 | 133 |
| CC(=O)c1ccc(OC2CCN(C(=O)OC(C)(C)C)CC2)cc1F | 72 to 73 |
| FC(F)(F)c1cccc(Nc2nc(Cl)nc3nc[nH]c23)c1 | 248 to 250 |
| O=C(CBr)CCc1ccc(Br)cc1 | 63 to 64 |
| N#Cc1[nH]c(-c2ccc(Cl)cc2)c(C#N)c1Br | > 225 |
| COC(=O)C(Cl)=Cc1cc(N)ccc1Cl | 104 to 105 |
| CCCN(c1nc(-c2ccc(Cl)cc2Cl)c(C=O)s1)C(C)c1ccncc1 (centres undefined) | 114 |
| Cc1cc(O)c(S(=O)Cc2ccccc2)c(=O)o1 (centres undefined) | 150 to 153 |
| O=C(O)C(=O)Nc1cccc(NC(=O)C(=O)O)n1 | > 310 |
| O=C(O)CCC1(c2cccs2)SCCS1 | 55 to 64 |
| N#Cc1cc(N=Nc2cc(Cl)ccc2Cl)ccc1N | 250 |
| Cc1nc(CC2OC(CO)C(O)C2O)n2nc(Cl)ccc12 (centres undefined) | 171 to 174 |
| COc1ccc(C=C2Cc3c(C)cc(C)c(O)c3C2=O)cc1 | 192 to 193 |
| Cc1nnc(COc2ccc(Oc3ccccc3)cc2)o1 | 78 to 79 |
| COc1ccc(Nc2nc(C)ncc2S(=O)(=O)c2ccc(OCc3ccccc3)cc2)c(C)n1 | 160 to 165 |
| CCCCCC(=O)NCc1ccco1 | 54 to 55 |
| CC(Cc1c[nH]c2ccccc12)C1=CCNCC1 (centres undefined) | 125 |
| COc1cc(C(=O)NN2CCN(C3CCCC3)CC2)ccc1Nc1ncc2c(n1)N(C1CCCCC1)CC(F)(F)C(=O)N2C | 98 to 99 |

| SMILES | melting point [°C] |
| --- | --- |
| CC1(C)C=C(c2ccccn2)C2=C(CC=CC(C#N)=C2)C1 | 120 |
| COc1cc(CC(=O)NCCCc2ccc(C)c(C)c2)ccc1OCCNC(=O)c1ccccc1OC(C)=O | 135 to 137 |
| O=C(O)CC(CC(=O)O)c1cccc2oc3c(c12)CCCC3 | 176 to 181 |
| Nc1c([N+](=O)[O-])ccc(Oc2cccc(Cl)c2)c1Cl | 101 to 102 |
| Cn1c(COc2ccc(CC3SC(=O)NC3=O)cc2)nc2ccc(Oc3cccc(NC(=O)Nc4ccccc4)c3)cc21 (centres undefined) | 165 to 167 |
| COC(=O)C1=C(C)NC(C)=C(C(=O)OCc2ccc(OC)cc2)C1c1ccccc1[N+](=O)[O-] (centres undefined) | 152 |
| Nc1nc(NCc2cccc(I)c2)c2ncn(C3OC(CO)C(O)C3O)c2n1 (centres undefined) | 152 to 154 |
| CC(=O)N1c2ccccc2NC(=O)c2cscc21 | 228 to 230 |
| O=C1C2Cc3c(nc(Br)n3Cc3ccccc3)CN2C(=O)N1c1ccccc1 (centres undefined) | 267 to 269 |
| O=C(Nc1ccc(NCc2ccccc2)cc1)C(=O)N1CCC(Cc2ccc(F)cc2)CC1 | 145 to 148 |
| COc1ccc(C(=CC(=O)N2CCOCC2)c2ccc(CC(=O)O)cc2)cc1OC | 192 to 194 |
| CN(C)C(=O)Cc1nc(-c2ccccc2)nc2c1c1ccc(Cl)cc1n2C | 185 to 187 |
| BrCc1noc2cc3ccccc3cc12 | 111 to 113 |
| COC(=O)c1ncn2c1[C@@H]1CCCN1C(=O)c1ccccc1-2 | 165 to 167 |
| Cc1oc(-c2ccccc2)nc1CC=Cc1ccc(CC2OC(=O)NC2=O)cc1 (centres undefined) | 168 to 169 |
| CC(=O)C1=C(O)C(C(=O)C=Cc2ccc(O)cc2)C(=O)OC1=O (centres undefined) | 194 to 196 |
| COc1ccc(CN(CCN(C)CCCCNC(=O)NCCSCc2csc(NC(=N)N)n2)c2ccccn2)cc1 | 104 to 106 |
| Cc1nc(SCc2ccc(Cl)cc2)nc2c1CCCC2 | 48 |
| Cc1cc2c(cc1-c1csc(C=O)c1)C(C)(C)CCC2(C)C | 144 to 146 |
| CC(C)C(NC(=O)c1ccncc1)C(=O)NC(Cc1ccccc1)C(O)C(Cc1ccccc1)NC(=O)C(NC(=O)c1ccncc1)C(C)C (centres undefined) | 256 to 258 |
| CCCCCCCCCCS(=O)(=O)NC(=O)c1cnc(C(N)=O)c(OC)c1 | 145 |
| COc1ccc(-c2csc(NC(=O)C(=O)OCCc3ccccc3)n2)cc1 | 165 to 167 |
| O=C(CCCl)N1c2ccccc2CCc2ccccc21 | 107 to 108 |

| SMILES | melting point [°C] |
| --- | --- |
| CN1Cc2cccnc2C(N2CCN(C(=O)CC3CCN(C(=O)OC(C)(C)C)CC3)CC2)c2ccc(Cl)cc21 (centres undefined) | 86 to 98 |
| Cc1c(CC(=O)NCCCO[N+](=O)[O-])cc(-c2ccc(S(C)(=O)=O)cc2)n1-c1ccc(F)cc1 | 127 |
| Cc1cccc(NC(=O)NC2N=C(CN3CC4CCC(CC4)C3)c3cccc(C)c3N(C)C2=O)c1 (centres undefined) | 146 to 149 |
| Cc1c2c(c(C)c3c1NCC3)OC(C)(CI)C2 (centres undefined) | 90 to 91 |
| CCOC(=O)c1ncn2c1CN=C(c1ccccc1)c1cc(Cl)ccc1-2 | 174 to 175 |
| CCOc1ccc2[nH]cc(CC(C)(N)C(=O)OC)c2c1 (racemic) | 165 to 166 |
| COc1cc(C(=O)CCCN2CCC(OC(=O)c3cc(Cl)c(N)c4c3OC(C)(C)C4)CC2)cc(OC)c1OC | 154 |
| Cc1cc(C)c2cccc(OCc3c(Cl)ccc(S(=O)(=O)N4CCC[C@H]4C(=O)NCCCN(C)C(=O)c4ccc(C=NN)cc4)c3Cl)c2n1 | 158 |
| N#CC(=C=Nc1nc2ccccc2[nH]1)C#N | 340 to 345 |
| COc1ccc(C(C)(O)C(F)(F)F)c(CCO)c1 (centres undefined) | 110 to 111 |
| CC(C)c1ccc2c(c1)C(=O)c1ccccc1C2=O | 53 to 54 |
| COc1cc2cc3c(Nc4ccc(F)c(Cl)c4)c(C#N)cnc3cc2cc1OCCN1CCOCC1 | 237 to 242 |
| CO/C=C(/C(=O)OC)c1ccccc1Oc1nc(Cl)nnc1Cl | 140 to 142 |
| CC(=O)SCCC(=O)N1c2ccc(C)cc2CCC1C(=O)O (centres undefined) | 118 to 120 |
| CCOC(=O)CN(C)c1ccc(N=C=S)cc1 | 90 to 91 |
| CCCC(=O)NCCCc1cccc(OCC2CC2)c1 | 36 to 37 |
| Fc1ccc(Nc2ncnc(NN=Cc3ccc(OC(F)(F)F)cc3)n2)cc1C(F)(F)F | 185 to 186 |
| CN1c2cscc2C(=O)N(CCN2CCOCC2)c2ccccc21 | 109 to 111 |
| CN(C)c1ccc(C2CCCN2S(=O)(=O)c2ccc(Cl)cc2)cc1Cl (racemic) | 103 |
| O=CNNc1ccc(NS(=O)(=O)c2cccc([N+](=O)[O-])c2)cc1 | 188 to 191 |
| Cn1nc(C(F)(F)F)c(CN2C(=O)C3(COc4cc5c(cc43)OCO5)c3ccccc32)c1Cl (centres undefined) | 180 to 182 |
| C=C(C)[C@@H]1CC[C@]2(C(=O)O)CC[C@]3(C)[C@H](CC[C@@H]4[C@@]5(C)CC[C@H](OC(=O)[C@H]6C[C@@H](C(=O)O)C6(C)C)C(C)(C)[C@@H]5CC[C@]43C)[C@@H]12 | 308 to 310 |
| CCCc1ccc(NC(=O)c2ccccc2NCc2ccncc2)cc1C(F)(F)F | 134 to 135 |
